Measured values from patent US20230233470A1, “Formulations” (ViiV Healthcare Company, priority 2020, published 2023).

Legend:
[1] = Estimate of DTG solubility in the dispersion; type: physicochemical; settings: for solubility when dispersed: Triumeq bilayer tablets dispersed in water
Procedure: (§1) Treatment B-E: Triumeq bilayer tablets—4 tablets (10 mg DTG/ABC 150 mg/3TC 75 mg) dispersed in high mineral content water (Contrex)* or purified water.
(§2) *Contrex water contains a very high level of minerals including calcium, purified water is mineral free.

[2] = Relative bioavailability: Trii Dispersible tablet (dispersed or direct to mouth) vs adult TRIUMEQ tablet; type: in vivo; settings: for differences in exposure: dispersed or direct to mouth vs. the IR tablet
[3] = Initial relative bioavailability PK study: Triumeq bilayer tablets dispersed in Contrex or purified water vs 4 x 10 mg DTG tablet + Kivexa; type: in vivo; settings: for differences in exposure across all 5 arms: Treatments A-E; for AUC0-inf (h*ug/mL) Ratio / Cmax (ug/mL) Ratio: DTG; for impact of DTG solubility on DTG levels in plasma / PK: solubility range studied 16-70%
Procedure: Treatment (TRT) A: Reference 4×10 mg DTG tablet+Kivexa (ABC 600 mg/3TC 300 mg)
as §1, §2

[4] = Dissolution (% released), USP <711> and Ph. Eur. 2.9.3; type: physicochemical; settings: active released from Triumeq Dispersible Bilayer Tablet; Q = 75% at 60 minutes
[5] = B vs A: bi-layer tablet in Contrex water, immediate, vs 4 × 10 mg tablet + Kivexa
[6] = C vs A: bi-layer tablet in Contrex water, 30 mins, vs control
[7] = D vs A: bi-layer tablet in purified water, immediate, vs control
[8] = E vs A: bi-layer tablet in purified water, 30 mins, vs control

Nc1nc(NC2CC2)c2ncn([C@H]3C=C[C@@H](CO)C3)c2n1 [Abacavir, (1S,4R-4-[2-amino-6-cyclopropylamino)-9H-purin-9-yl]-2-cyclopentene-1-methanol hemisulfate]
solubility when dispersed [1]: fully soluble | differences in exposure [2]: No differences in exposure | differences in exposure across all 5 arms [3]: no differences in exposure | Dissolution (% released) [4]: 101 (99-104) %

C[C@@H]1CCO[C@H]2Cn3cc(C(=O)NCc4ccc(F)cc4F)c(=O)c(O)c3C(=O)N12 [Dolutegravir, (4R,12aS)-N-[(2,4-difluorophenyl)methyl]-7-hydroxy-4-methyl-6,8-dioxo-3,4,12,12a-tetrahydro-2H-pyrido[5,6]pyrazino[2,6-b][1,3]oxazine-9-carboxamide]
Estimate of DTG solubility ([1]; Treatment B: Bi-layer tablet, Contrex water (Ca++) plus flavour and sweetener, dispersion time immediate): Approx. 45% DTG | Estimate of DTG solubility ([1]; Treatment C: Bi-layer tablet, Contrex water (Ca++) plus flavour and sweetener, dispersion time 30 mins): Approx. 45% DTG | Estimate of DTG solubility ([1]; Treatment D: Bi-layer tablet, purified water plus flavour and sweetener, dispersion time immediate): Approx. 70% DTG | Estimate of DTG solubility ([1]; Treatment E: Bi-layer tablet, purified water plus flavour and sweetener, dispersion time 30 mins): Approx. 16% DTG | exposure, fold ([2]; dosed as dispersion vs adult immediate release tablet): ~1.6 × | exposure, fold ([2]; dosed direct to mouth vs adult immediate release tablet): ~1.25 × | AUC0-inf (h*ug/mL) Ratio [3, 5]: 1.56 | Cmax (ug/mL) Ratio [3, 5]: 1.59 | AUC0-inf (h*ug/mL) Ratio [3, 6]: 1.53 | Cmax (ug/mL) Ratio [3, 6]: 1.56 | AUC0-inf (h*ug/mL) Ratio [3, 7]: 1.58 | Cmax (ug/mL) Ratio [3, 7]: 1.56 | AUC0-inf (h*ug/mL) Ratio [3, 8]: 1.54 | Cmax (ug/mL) Ratio [3, 8]: 1.58 | exposure compared to the reference, fold ([3]; bilayer tablets dispersed (B-E) vs reference 4×10 mg DTG tablet + Kivexa): ~1.6 × | impact of DTG solubility on DTG levels in plasma / PK [3]: no impact on PK | impact of DTG solubility on DTG levels in plasma / PK ([3]; listed as DTG): does not impact | Dissolution (% released) [4]: 91 (87-95) %

Nc1ccn([C@@H]2CS[C@H](CO)O2)c(=O)n1 [Lamivudine, 2′,3′-dideoxy-3′-thiacytidine]
solubility when dispersed [1]: fully soluble | differences in exposure [2]: No differences in exposure | differences in exposure across all 5 arms [3]: no differences in exposure | Dissolution (% released) [4]: 99 (92-106) %
